How the values were obtained:
[1] = test system: Plasmopara viticola; experiment: Leaf disk assay, Plasmopara viticola (downy mildew of grapevine), preventive; assay type: in vivo; details: foliar, 168 h, grapevine leaf disks, assessed seven days after inoculation, read-out: control of fungal infection, Plasmopara viticola
[2] = test system: Pythium ultimum; experiment: Growth inhibition in potato dextrose broth, Pythium ultimum (damping off), photometric; assay type: cell-based; details: Globisporangium ultimum, 24° C., 48 hours, read-out: control of fungal infection, Pythium ultimum
Description: The compounds were tested in a leaf disk assay, with methods described below. The test compounds were dissolved in DMSO and diluted into water to 200 ppm. In the case of the test on Pythium ultimum, they were dissolved in DMSO and diluted into water to 20 ppm. Pythium ultimum (Damping off): Mycelial fragments of the fungus, prepared from a fresh liquid culture, were mixed into potato dextrose broth. A solution of the test compound in dimethyl sulphoxide was diluted with water to 20 ppm then placed into a 96-well microtiter plate and the nutrient broth containing the fungal spores was added. The test plate was incubated at 24° C. and the inhibition of growth was determined photometrically after 48 hours.

[3] = test system: Fusarium culmorum; experiment: Growth inhibition in nutrient broth, Fusarium culmorum (root rot), photometric; assay type: cell-based; details: 48 h, read-out: control of fungal infection, Fusarium culmorum
Description: The compounds were tested in a leaf disk assay, with methods described below. The test compounds were dissolved in DMSO and diluted into water to 200 ppm. In the case of the test on Pythium ultimum, they were dissolved in DMSO and diluted into water to 20 ppm.
Fusarium culmorum (root rot): Conidia of the fungus from cryogenic storage were directly mixed into nutrient broth (PDB potato dextrose broth). After placing a (DMSO) solution of the test compounds into a microtiter plate (96-well format) the nutrient broth containing the fungal spores was added. The test plates were incubated at 24 C and the inhibition of growth was determined photometrically after 48 hrs.

[4] = test system: Phytophthora infestans; experiment: whole plant or invertebrate; assay type: in vivo; details: in Solanum lycopersicum, foliar, 96 h, read-out: control of fungal infection, Phytophthora infestans
[5] = test system: Erysiphe graminis f.sp. tritici; experiment: Leaf disk assay, Erysiphe graminis f.sp. tritici (wheat powdery mildew), preventive; assay type: in vivo; details: Blumeria graminis, foliar, 96 h, wheat leaf segments, assessed four days after inoculation, read-out: control of fungal infection, Erysiphe graminis f.sp. tritici
Description: The compounds were tested in a leaf disk assay, with methods described below. The test compounds were dissolved in DMSO and diluted into water to 200 ppm. In the case of the test on Pythium ultimum, they were dissolved in DMSO and diluted into water to 20 […] graminis f.sp. tritici (wheat powdery mildew): Wheat leaf segments were placed on agar in a 24-well plate and sprayed with a solution of the test compound. After allowing to dry completely, for between 12 and 24 hours, the leaf disks were inoculated with a spore suspension of the fungus. After appropriate incubation the activity of a compound was assessed four days after inoculation as preventive fungicidal activity.

[6] = test system: Septoria tritici; experiment: Growth inhibition in nutrient broth, Septoria tritici (leaf blotch), photometric; assay type: cell-based; details: Zymoseptoria tritici, PDB broth, 24 C, 72 hrs, read-out: control of fungal infection, Septoria tritici
[7] = test system: Septoria nodorum; experiment: Leaf disk assay, Septoria nodorum (wheat glume blotch), preventive; assay type: in vivo; details: Parastagonospora nodorum, foliar, 96 h, wheat leaf segments, assessed four days after inoculation, read-out: control of fungal infection, Septoria nodorum
[8] = test system: Puccinia recondita f.sp. tritici; experiment: Leaf disk assay, Puccinia recondita f.sp. tritici (wheat brown rust), preventive; assay type: in vivo; details: foliar, 216 h, wheat leaf segments, assessed nine days after inoculation, read-out: control of fungal infection, Puccinia recondita f.sp. tritici

C#Cc1cnc2cc(F)c(OC(CC)C(=O)NC(C)(C)C=O)cc2c1 (stereo not drawn) [Example 193]
≥ 60%: pest or weed control at 200 ppm [1] | inhibition of growth at 20 ppm [2] | inhibition of growth at 60 ppm [3] | pest or weed control at 200 ppm [4]

C#Cc1cnc2ccc(OC(SC)C(=O)NC(C)(C#C)CC)cc2c1 (stereo not drawn) [Example 205]
≥ 60%: pest or weed control at 200 ppm [1] | inhibition of growth at 20 ppm [2] | pest or weed control at 200 ppm [5] | inhibition of growth at 60 ppm [3] | pest or weed control at 200 ppm [4]

CSC(Oc1ccc2ncc(C#CBr)cc2c1)C(=O)NC(C)(C)C (stereo not drawn) [Example 69]
≥ 60%: pest or weed control at 200 ppm [1] | inhibition of growth at 20 ppm [2] | inhibition of growth at 60 ppm [3] | pest or weed control at 200 ppm [4] | inhibition of growth at 60 ppm [6]

C#Cc1cnc2ccc(OC(CC)C(=O)NC(C)(C)CO)cc2c1 (stereo not drawn) [Example 110]
≥ 60%: inhibition of growth at 20 ppm [2] | pest or weed control at 200 ppm [5] | inhibition of growth at 60 ppm [3] | pest or weed control at 200 ppm [7] | pest or weed control at 200 ppm [4] | inhibition of growth at 60 ppm [6]

C#Cc1cnc2ccc(OC(SC)C(=O)NC(C)(C)CC#N)cc2c1 (stereo not drawn) [Example 197]
≥ 60%: pest or weed control at 200 ppm [1] | inhibition of growth at 20 ppm [2] | inhibition of growth at 60 ppm [3] | pest or weed control at 200 ppm [4]

CC#Cc1cnc2ccc(OC(SC)C(=O)NC(C)(C)C#CCOC)cc2c1 (stereo not drawn) [Example 55]
≥ 60%: pest or weed control at 200 ppm [1] | inhibition of growth at 20 ppm [2] | pest or weed control at 200 ppm [5] | pest or weed control at 200 ppm [8] | pest or weed control at 200 ppm [7] | pest or weed control at 200 ppm [4] | inhibition of growth at 60 ppm [6]

C#Cc1cnc2ccc(OC(SC)C(=O)NC(C)(C#N)COC)cc2c1 (stereo not drawn) [Example 25]
≥ 60%: pest or weed control at 200 ppm [1] | inhibition of growth at 20 ppm [2] | pest or weed control at 200 ppm [5] | pest or weed control at 200 ppm [8] | pest or weed control at 200 ppm [7] | pest or weed control at 200 ppm [4] | inhibition of growth at 60 ppm [6]

C#CC(C)(C)NC(=O)C(Oc1ccc2ncc(C#CC)cc2c1)SC (stereo not drawn) [Example 57]
≥ 60%: pest or weed control at 200 ppm [1] | inhibition of growth at 60 ppm [3] | pest or weed control at 200 ppm [7] | pest or weed control at 200 ppm [4] | inhibition of growth at 60 ppm [6]

C#Cc1cnc2ccc(OC(SC)C(=O)NC(C)(C)CCOC)cc2c1 (stereo not drawn) [Example 85]
≥ 60%: pest or weed control at 200 ppm [1] | inhibition of growth at 20 ppm [2] | pest or weed control at 200 ppm [5] | pest or weed control at 200 ppm [8] | pest or weed control at 200 ppm [7] | pest or weed control at 200 ppm [4] | inhibition of growth at 60 ppm [6]

C#Cc1cnc2ccc(OC(OC)C(=O)NC(C)(C)C#CCOC)cc2c1 (stereo not drawn) [Example 125]
≥ 60%: pest or weed control at 200 ppm [1] | inhibition of growth at 20 ppm [2] | pest or weed control at 200 ppm [5] | inhibition of growth at 60 ppm [3] | pest or weed control at 200 ppm [4] | inhibition of growth at 60 ppm [6]

C#Cc1cnc2cc(F)c(OC(SC)C(=O)NC(C)(C)C#CCC)cc2c1 (stereo not drawn) [Example 190]
≥ 60%: pest or weed control at 200 ppm [1] | inhibition of growth at 20 ppm [2] | inhibition of growth at 60 ppm [3] | pest or weed control at 200 ppm [4]

Source: patent publication US8415272B2, “Quinoline derivatives and their use as fungicides” (Syngenta Crop Protection LLC, priority 2008, dated 2013)
